Active and inactive are the calls of the source.
Key:
HeLa = experiment: HeLa cell cytotoxicity, dose response, cytotoxicity control, ATP luminescence, cherry-pick samples (AID 687004); type: functional, cell-based; conditions: Homo sapiens
[1] = HEK293 cell viability, dose response, counter-screen for EBV LMP1 inhibitor project, dry powder, set 2 (AID 624374); type: functional
[2] = inhibitors of CMV-promoter luciferase reporter, dose response, counter-screen for Pax8 inhibitor project, cell-based, HEK293, luminescence, dry powder (AID 743020); type: functional
[3] = cytotoxicity in OVCAR8 ovarian cancer cells, dose response, PAX8 project, cell-based, plate reader, dry powder samples (AID 743197); type: functional; conditions: OVCAR-8
Paired box protein Pax-8 = Paired box protein Pax-8 (Homo sapiens, UniProt Q06710); experiment: inhibitors of PAX8-driven TPO luciferase reporter, dose response, RMG-I cells, cherry-pick (AID 687027); type: functional, cell-based;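 also: luciferase reporter driven by Pax8 target thyroperoxidase promoter measured by SteadyGlo luminescence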
Paired box protein Pax-8, sequence (Q06710 whole entry): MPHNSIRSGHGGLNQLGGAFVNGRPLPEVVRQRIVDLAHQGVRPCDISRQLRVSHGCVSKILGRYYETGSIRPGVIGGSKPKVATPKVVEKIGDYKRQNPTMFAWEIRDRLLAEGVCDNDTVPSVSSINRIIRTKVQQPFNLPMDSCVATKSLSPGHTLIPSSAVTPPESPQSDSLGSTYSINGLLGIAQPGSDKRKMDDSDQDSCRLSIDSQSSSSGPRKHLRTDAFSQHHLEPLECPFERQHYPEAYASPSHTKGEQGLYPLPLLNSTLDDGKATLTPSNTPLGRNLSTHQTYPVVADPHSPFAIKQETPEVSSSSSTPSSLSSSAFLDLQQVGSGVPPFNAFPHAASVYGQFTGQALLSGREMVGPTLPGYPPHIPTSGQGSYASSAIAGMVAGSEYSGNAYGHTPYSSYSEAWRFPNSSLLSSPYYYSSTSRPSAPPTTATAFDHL

[4] = molecular target: Kappa-type opioid receptor (Homo sapiens, UniProt P41145); experiment: OPRK1 antagonists, late-stage follow-up, cell-based, fluorescence, dose response (AID 652032); type: functional
Kappa-type opioid receptor, sequence (P41145 whole entry): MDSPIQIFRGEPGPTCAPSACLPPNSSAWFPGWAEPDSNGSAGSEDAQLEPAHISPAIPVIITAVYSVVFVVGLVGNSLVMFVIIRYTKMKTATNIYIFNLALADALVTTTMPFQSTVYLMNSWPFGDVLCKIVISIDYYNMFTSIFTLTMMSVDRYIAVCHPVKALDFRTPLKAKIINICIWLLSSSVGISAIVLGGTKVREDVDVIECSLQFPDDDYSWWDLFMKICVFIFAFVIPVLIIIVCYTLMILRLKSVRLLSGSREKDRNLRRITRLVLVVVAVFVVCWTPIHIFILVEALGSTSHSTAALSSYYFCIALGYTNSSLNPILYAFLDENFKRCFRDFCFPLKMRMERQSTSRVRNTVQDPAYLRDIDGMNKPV

Beta-lactamase [5] = molecular target: T1, Beta-lactamase (Pseudomonas aeruginosa, UniProt Q79MP6); experiment: IMP-1 metallo-beta-lactamase inhibitors, dose response, selectivity assay for VIM-2 inhibitor project, biochemical, epi-absorbance (AID 1920)
T1 sequence (Q79MP6 whole entry): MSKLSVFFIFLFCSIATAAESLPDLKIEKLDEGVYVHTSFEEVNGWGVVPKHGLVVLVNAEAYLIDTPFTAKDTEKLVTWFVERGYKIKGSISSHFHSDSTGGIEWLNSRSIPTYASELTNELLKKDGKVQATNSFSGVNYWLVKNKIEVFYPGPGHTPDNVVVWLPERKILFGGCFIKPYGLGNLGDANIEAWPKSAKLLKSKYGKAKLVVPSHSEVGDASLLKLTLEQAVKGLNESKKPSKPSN

Beta-lactamase [6] = molecular target: T1, Beta-lactamase; experiment: […] counterscreen for selective VIM-2 inhibitors: dose response biochemical high throughput screening assay to identify inhibitors of IMP-1 metallo-beta-lactamase.
Beta-lactamase [7] = molecular target: Beta-lactamase (Salmonella choleraesuis (strain SC-B67), UniProt Q5J463); experiment: Epi-absorbance-based counterscreen for selective VIM-2 inhibitors: dose response biochemical high throughput screening assay to identify inhibitors of TEM-1 serine-beta-lactamase.
Beta-lactamase (Salmonella choleraesuis (strain SC-B67), UniProt Q5J463), sequence (Q5J463 whole entry): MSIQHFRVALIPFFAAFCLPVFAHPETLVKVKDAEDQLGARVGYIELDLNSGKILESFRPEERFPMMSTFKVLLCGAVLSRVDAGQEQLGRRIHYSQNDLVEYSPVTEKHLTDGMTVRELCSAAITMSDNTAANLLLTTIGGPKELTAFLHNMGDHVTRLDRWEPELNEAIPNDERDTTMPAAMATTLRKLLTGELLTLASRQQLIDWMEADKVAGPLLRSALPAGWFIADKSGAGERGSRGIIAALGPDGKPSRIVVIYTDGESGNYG

Genome polyprotein = Genome polyprotein (dengue virus type 2, UniProt P29990); experiment: Dengue-2 NS5 methyltransferase inhibitors, primary screen, biochemical, confirmation dose response (AID 588689); type: functional
Genome polyprotein, sequence (P29990 2492-3391 limits assumed): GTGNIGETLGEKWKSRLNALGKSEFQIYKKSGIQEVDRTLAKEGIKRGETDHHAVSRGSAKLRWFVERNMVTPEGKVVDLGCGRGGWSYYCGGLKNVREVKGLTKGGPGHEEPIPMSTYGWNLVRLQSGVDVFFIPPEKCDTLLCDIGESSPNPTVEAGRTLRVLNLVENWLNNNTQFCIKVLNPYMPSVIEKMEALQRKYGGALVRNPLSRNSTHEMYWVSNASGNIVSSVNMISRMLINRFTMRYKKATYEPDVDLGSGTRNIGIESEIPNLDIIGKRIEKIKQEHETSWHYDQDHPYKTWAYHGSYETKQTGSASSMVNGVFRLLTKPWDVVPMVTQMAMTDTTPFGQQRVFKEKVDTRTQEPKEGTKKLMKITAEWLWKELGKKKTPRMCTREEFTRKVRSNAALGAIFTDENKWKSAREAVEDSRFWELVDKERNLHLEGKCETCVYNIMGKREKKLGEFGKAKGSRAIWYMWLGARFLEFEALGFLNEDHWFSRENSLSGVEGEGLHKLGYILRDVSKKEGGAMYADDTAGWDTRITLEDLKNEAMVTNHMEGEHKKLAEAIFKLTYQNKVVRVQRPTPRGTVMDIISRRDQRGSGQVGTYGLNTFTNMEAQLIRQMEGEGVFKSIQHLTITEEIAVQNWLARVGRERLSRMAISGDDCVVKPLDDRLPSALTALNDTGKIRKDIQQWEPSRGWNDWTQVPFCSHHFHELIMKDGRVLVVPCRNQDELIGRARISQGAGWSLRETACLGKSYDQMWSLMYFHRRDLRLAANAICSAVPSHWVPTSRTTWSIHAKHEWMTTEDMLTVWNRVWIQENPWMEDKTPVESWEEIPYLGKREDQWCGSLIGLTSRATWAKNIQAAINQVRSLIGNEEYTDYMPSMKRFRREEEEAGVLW

Beta Lactamase [8] = molecular target: T2, Beta Lactamase (Pseudomonas aeruginosa, UniProt Q932Y6); experiment: VIM-2 inhibitor FRET-based artefact check, dose response, artefact control for selective VIM-2 inhibitor project, biochemical, FRET readout, CCF2 substrate (AID 1926)
T2 sequence (Q932Y6 whole entry, the tested form may be a part): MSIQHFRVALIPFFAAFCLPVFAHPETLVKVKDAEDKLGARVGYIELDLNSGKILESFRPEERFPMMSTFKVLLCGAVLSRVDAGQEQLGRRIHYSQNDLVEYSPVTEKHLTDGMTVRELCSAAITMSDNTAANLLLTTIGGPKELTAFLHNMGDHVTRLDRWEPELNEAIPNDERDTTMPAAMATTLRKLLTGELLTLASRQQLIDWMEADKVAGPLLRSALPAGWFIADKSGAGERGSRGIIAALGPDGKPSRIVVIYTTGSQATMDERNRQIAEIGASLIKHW

[9] = molecular target: T3, Carboxy-terminal domain RNA polymerase II polypeptide A small phosphatase 1 (Homo sapiens, UniProt Q9GZU7); experiment: inhibitors of CTDSP1, concentration-response testing, biochemical assay, absorbance-based, actives from ultra-high-throughput screening (AID 540297); type: functional
T3 sequence (Q9GZU7 whole entry): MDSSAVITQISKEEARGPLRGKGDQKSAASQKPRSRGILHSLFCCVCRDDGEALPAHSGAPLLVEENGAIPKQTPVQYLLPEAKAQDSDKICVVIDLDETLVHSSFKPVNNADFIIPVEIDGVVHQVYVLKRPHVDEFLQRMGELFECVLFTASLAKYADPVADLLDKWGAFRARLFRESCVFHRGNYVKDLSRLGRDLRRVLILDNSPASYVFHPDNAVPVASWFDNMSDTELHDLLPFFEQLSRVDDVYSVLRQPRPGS

Beta Lactamase [10] = molecular target: T2, Beta Lactamase; experiment: VIM-2 metallo-beta-lactamase inhibitor potency, dose response, biochemical, epi-absorbance readout, selective inhibitors (AID 1919)

Which AC50 (HeLa) does the source give for COc1ccc(C2=Nc3ccccc3NC(=O)C2N(C(=O)c2cc3ccccc3[nH]2)c2ccccc2)cc1 (stereo not drawn) here?
The AC50 was > 52 µM (inactive).

For Cc1noc(C)c1S(=O)(=O)Nc1ccc2c(c1)C(=O)N([C@H](C)CO)C[C@H](C)[C@H](CN(C)Cc1ccc(C(F)(F)F)cc1)OCCCC[C@@H](C)O2, which AbsAC35 [1] is on record?
Its AbsAC35 is 79.09 µM.

With COc1ccc(S(=O)(=O)Nc2ccc3c(c2)CC(=O)N([C@H](C)CO)C[C@H](C)[C@@H](CN(C)Cc2ccc(C(F)(F)F)cc2)O3)cc1 as the compound, how does the AC50 [2] read?
The AC50 was 49.3 µM (active).

And the AC50 [3]?
Its AC50 is > 70 µM (inactive).

What about the AC50 (Paired box protein Pax-8) of the same compound?
Its AC50 is 19.3 µM (active).

With COC(=O)c1cc(Br)cnc1N1CCC(N)CC1 as the compound, how does the IC50 [4] read?
The IC50 was 21.8 µM (inactive).

Which IC50 (Beta-lactamase [5]) does the source give for Oc1c(Br)cc(/C=N/n2c(S)nnc2-c2ccccc2)cc1Br here?
Its IC50 is > 59.6 µM (inactive).

And the IC50 (Beta-lactamase [6])?
The IC50 was > 19.9 µM (inactive).

And the IC50 (Beta-lactamase [7])?
The IC50 was > 59.6 µM (inactive).

What about the IC50 (Genome polyprotein) of the same compound?
The IC50 was 27.5 µM (active).

What about the IC50 (Beta Lactamase [8]) of the same compound?
Its IC50 is 6.1 µM (active).

What about the IC50 [9] of the same compound?
The IC50 was 1.54 µM (active).

What about the IC50 (Beta Lactamase [10]) of the same compound?
Its IC50 is 19.3 µM (inactive).
